Columns and labels:
Assay in all cases: radiometric filter-binding kinase assay
[1] = target: FGFR1 (human) (UniProt P11362)
[2] = target: PKN2 (human) (UniProt Q16513)
[3] = system: RPS6KB1 (human), P23443 [T412E]
[4] = target: CSNK2A1 (human) (UniProt P68400)
[5] = target: MKNK1 (human) (UniProt Q9BUB5)
[6] = target: EPHA2 (human) (UniProt P29317)
[7] = system: AKT2 (human), P31751 [S474D]
[8] = target: PHKG1 (human) (UniProt Q16816)
[9] = target: INSRR (human) (UniProt P14616)
[10] = target: MAPK13 (human) (UniProt O15264)
MAPK13 (human), sequence (O15264 whole entry, looked up): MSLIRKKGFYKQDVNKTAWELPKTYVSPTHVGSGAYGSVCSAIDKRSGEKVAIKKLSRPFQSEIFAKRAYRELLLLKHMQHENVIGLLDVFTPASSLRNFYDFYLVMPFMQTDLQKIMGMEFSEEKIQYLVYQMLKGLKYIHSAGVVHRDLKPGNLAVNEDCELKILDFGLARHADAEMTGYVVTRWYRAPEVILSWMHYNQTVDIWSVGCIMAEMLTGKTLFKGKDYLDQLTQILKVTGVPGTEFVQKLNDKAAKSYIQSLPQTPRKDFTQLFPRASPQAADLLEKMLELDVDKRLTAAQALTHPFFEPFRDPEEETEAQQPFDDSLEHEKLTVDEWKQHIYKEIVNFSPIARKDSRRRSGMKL

[11] = target: NEK2 (human) (UniProt P51955)
NEK2 (human), sequence (P51955 whole entry, looked up): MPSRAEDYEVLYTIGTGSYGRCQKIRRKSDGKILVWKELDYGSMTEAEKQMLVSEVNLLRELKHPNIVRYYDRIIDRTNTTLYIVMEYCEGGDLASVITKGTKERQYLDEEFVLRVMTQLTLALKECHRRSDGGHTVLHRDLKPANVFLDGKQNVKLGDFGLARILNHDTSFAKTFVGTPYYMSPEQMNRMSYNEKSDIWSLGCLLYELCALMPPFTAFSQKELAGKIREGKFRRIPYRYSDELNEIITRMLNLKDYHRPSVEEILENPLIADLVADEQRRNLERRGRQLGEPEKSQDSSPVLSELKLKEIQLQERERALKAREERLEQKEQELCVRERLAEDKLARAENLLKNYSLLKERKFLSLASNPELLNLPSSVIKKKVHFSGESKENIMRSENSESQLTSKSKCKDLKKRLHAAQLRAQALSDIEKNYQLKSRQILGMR

[12] = target: INSR (human) (UniProt P06213); settings: compound 0.1 µM
[13] = system: ROCK2 (rat); settings: accession and sequence are those of the human protein
[14] = target: MAPK11 (human) (UniProt Q15759)
[15] = target: NEK6 (human) (UniProt Q9HC98)
[16] = target: PIM2 (human) (UniProt Q9P1W9)
[17] = target: PIM3 (human) (UniProt Q86V86)
[18] = target: DYRK3 (human) (UniProt O43781)
[19] = target: GSK3B (human) (UniProt P49841)
[20] = system: AKT1 (human), P31749 [S473D]
AKT1 (human), P31749 [S473D], sequence (P31749 whole entry S473D, looked up): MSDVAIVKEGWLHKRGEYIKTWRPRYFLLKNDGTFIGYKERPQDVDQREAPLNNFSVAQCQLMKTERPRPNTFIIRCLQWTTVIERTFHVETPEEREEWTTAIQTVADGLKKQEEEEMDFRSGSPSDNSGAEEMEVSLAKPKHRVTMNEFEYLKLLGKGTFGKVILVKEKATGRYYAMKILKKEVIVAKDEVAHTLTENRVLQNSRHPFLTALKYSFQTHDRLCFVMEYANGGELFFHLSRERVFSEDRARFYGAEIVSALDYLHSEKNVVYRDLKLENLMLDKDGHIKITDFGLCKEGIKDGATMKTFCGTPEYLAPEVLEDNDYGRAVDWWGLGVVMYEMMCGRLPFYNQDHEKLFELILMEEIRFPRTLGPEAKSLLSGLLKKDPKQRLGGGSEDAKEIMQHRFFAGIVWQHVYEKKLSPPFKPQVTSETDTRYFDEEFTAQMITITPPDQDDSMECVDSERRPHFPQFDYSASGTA

[21] = system: LCK (mouse); settings: accession and sequence are those of the human protein
[22] = target: TBK1 (human) (UniProt Q9UHD2)
[23] = target: SYK (human) (UniProt P43405)
[24] = target: MYLK (human) (UniProt Q15746)
MYLK (human), sequence (Q15746 whole entry, looked up): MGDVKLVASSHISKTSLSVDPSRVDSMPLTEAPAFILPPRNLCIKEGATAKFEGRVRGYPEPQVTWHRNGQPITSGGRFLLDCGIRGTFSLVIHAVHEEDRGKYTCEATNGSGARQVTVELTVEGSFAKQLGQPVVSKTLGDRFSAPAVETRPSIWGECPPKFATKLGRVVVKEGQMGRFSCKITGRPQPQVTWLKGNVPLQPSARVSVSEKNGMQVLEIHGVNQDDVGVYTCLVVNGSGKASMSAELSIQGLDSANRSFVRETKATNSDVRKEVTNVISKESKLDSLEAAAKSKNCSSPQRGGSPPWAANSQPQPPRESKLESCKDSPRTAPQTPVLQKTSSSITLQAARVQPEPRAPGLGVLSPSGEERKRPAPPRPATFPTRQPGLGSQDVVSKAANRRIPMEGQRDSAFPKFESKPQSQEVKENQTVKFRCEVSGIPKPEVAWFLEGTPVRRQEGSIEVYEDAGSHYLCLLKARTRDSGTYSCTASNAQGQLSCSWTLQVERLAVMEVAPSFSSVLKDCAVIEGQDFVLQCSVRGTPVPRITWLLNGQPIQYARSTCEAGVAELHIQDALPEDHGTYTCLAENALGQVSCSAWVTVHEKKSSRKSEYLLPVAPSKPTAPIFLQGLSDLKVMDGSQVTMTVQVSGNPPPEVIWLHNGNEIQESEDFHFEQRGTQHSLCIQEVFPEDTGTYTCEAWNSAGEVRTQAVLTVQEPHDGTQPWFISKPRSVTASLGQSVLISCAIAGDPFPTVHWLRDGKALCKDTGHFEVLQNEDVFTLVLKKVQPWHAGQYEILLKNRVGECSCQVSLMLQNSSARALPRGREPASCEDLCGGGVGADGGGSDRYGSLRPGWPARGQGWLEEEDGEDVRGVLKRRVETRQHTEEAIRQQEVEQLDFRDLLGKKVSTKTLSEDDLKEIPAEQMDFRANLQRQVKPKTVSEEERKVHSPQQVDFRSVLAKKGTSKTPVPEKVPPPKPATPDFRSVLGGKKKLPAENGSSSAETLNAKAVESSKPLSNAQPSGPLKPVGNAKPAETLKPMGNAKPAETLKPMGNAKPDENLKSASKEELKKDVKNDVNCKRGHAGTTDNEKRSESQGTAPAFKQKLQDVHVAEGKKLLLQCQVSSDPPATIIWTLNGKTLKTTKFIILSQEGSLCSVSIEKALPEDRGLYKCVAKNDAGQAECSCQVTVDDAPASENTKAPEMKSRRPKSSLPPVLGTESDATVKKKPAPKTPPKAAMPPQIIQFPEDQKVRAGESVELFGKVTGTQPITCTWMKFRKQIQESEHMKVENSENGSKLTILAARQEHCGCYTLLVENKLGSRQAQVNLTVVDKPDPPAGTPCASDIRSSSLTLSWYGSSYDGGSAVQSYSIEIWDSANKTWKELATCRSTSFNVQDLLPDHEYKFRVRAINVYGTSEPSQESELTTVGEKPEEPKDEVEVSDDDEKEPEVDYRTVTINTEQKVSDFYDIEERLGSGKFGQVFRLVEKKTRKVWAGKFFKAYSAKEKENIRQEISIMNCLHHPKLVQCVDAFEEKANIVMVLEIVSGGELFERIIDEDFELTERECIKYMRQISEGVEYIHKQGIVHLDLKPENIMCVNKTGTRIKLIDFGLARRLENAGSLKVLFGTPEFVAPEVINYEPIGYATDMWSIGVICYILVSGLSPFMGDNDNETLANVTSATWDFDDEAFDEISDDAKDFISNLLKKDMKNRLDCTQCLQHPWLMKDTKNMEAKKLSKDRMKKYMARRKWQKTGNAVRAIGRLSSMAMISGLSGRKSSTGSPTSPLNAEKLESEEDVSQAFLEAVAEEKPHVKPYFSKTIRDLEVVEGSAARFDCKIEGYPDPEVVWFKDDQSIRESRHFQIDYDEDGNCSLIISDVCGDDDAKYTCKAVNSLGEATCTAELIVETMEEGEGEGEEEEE

[25] = target: SRPK1 (human) (UniProt Q96SB4)
SRPK1 (human), sequence (Q96SB4 whole entry, looked up): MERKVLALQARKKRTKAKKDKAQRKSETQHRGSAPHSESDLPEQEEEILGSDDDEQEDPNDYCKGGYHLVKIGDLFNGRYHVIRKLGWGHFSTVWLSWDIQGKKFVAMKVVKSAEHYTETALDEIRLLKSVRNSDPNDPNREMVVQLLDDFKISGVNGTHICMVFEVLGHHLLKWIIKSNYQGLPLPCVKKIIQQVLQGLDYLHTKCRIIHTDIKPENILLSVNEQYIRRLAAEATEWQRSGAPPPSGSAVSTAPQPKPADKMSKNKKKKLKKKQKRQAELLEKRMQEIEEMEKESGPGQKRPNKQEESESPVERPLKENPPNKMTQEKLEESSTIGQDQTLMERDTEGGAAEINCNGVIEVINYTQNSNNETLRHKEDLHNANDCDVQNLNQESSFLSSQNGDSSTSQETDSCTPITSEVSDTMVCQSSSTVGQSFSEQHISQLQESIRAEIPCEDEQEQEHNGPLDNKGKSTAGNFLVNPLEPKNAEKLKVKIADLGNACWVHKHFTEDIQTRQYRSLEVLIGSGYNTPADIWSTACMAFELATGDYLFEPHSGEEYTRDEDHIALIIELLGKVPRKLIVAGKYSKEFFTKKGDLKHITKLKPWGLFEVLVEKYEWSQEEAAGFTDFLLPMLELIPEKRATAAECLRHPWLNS

[26] = target: MAP2K1 (human) (UniProt Q02750)
MAP2K1 (human), sequence (Q02750 whole entry, looked up): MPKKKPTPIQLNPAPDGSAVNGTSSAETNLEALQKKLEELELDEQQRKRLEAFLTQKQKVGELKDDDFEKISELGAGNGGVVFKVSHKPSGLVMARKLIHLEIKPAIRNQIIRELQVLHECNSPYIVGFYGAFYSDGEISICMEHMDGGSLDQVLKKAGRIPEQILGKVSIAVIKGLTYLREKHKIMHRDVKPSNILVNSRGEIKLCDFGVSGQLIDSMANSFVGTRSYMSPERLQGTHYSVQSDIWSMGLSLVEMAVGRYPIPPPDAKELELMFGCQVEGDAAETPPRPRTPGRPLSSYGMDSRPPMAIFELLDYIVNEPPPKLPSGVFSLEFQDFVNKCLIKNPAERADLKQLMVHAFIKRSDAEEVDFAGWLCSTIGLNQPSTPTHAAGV

[27] = target: MAPK10 (human) (UniProt P53779)

PHKG1 (human), sequence (Q16816 whole entry, looked up): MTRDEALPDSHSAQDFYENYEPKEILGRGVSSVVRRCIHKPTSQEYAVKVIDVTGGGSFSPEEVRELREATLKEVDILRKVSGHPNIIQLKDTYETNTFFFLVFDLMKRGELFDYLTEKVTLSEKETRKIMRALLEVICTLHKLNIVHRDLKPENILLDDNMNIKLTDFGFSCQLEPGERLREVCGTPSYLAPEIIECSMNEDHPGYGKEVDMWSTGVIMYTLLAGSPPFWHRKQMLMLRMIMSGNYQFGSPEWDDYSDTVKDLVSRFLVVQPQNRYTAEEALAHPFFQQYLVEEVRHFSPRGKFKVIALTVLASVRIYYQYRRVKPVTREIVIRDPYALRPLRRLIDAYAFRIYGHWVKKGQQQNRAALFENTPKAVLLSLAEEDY

Structure (SMILES): Cn1c(=O)c2c(ncn2C)n(C)c1=O
- residual activity ([1]; compound 0.1 µM): 118%
- residual activity ([1]; compound 1.0 µM): 112%
- residual activity ([2]; compound 0.1 µM): 89%
- residual activity ([3]; compound 0.1 µM): 100%
- residual activity ([3]; compound 1.0 µM): 98%
- residual activity ([4]; compound 0.1 µM): 115%
- residual activity ([4]; compound 1.0 µM): 106%
- residual activity ([5]; compound 0.1 µM): 110%
- residual activity ([5]; compound 1.0 µM): 99%
- residual activity ([6]; compound 0.1 µM): 96%
- residual activity ([6]; compound 1.0 µM): 102%
- residual activity ([7]; compound 0.1 µM): 81%
- residual activity ([7]; compound 1.0 µM): 84%
- residual activity ([8]; compound 0.1 µM): 113%
- residual activity ([8]; compound 1.0 µM): 115%
- residual activity ([9]; compound 0.1 µM): 86%
- residual activity ([9]; compound 1.0 µM): 80%
- residual activity ([10]; compound 0.1 µM): 88%
- residual activity ([10]; compound 1.0 µM): 88%
- residual activity ([11]; compound 0.1 µM): 107%
- residual activity ([11]; compound 1.0 µM): 102%
- residual activity [12]: 104%
- residual activity ([13]; compound 0.1 µM): 91%
- residual activity ([13]; compound 1.0 µM): 93%
- residual activity ([14]; compound 0.1 µM): 107%
- residual activity ([14]; compound 1.0 µM): 104%
- residual activity ([15]; compound 0.1 µM): 79%
- residual activity ([15]; compound 1.0 µM): 89%
- residual activity ([16]; compound 0.1 µM): 113%
- residual activity ([17]; compound 0.1 µM): 99%
- residual activity ([17]; compound 1.0 µM): 97%
- residual activity ([18]; compound 0.1 µM): 96%
- residual activity ([18]; compound 1.0 µM): 98%
- residual activity ([19]; compound 0.1 µM): 102%
- residual activity ([19]; compound 1.0 µM): 101%
- residual activity ([20]; compound 0.1 µM): 90%
- residual activity ([20]; compound 1.0 µM): 101%
- residual activity ([21]; compound 0.1 µM): 88%
- residual activity ([21]; compound 1.0 µM): 92%
- residual activity ([22]; compound 0.1 µM): 92%
- residual activity ([22]; compound 1.0 µM): 96%
- residual activity ([23]; compound 0.1 µM): 92%
- residual activity ([23]; compound 1.0 µM): 86%
- residual activity ([24]; compound 0.1 µM): 90%
- residual activity ([24]; compound 1.0 µM): 91%
- residual activity ([25]; compound 0.1 µM): 93%
- residual activity ([25]; compound 1.0 µM): 97%

Structure (SMILES): Cc1cccc(Nc2nn(C)c3ncnc(N)c23)c1
- residual activity ([2]; compound 1.0 µM): 119%
- residual activity ([2]; compound 10.0 µM): 110%
- residual activity ([3]; compound 1.0 µM): 127%
- residual activity ([3]; compound 10.0 µM): 137%
- residual activity ([4]; compound 1.0 µM): 93%
- residual activity ([4]; compound 10.0 µM): 93%
- residual activity ([5]; compound 1.0 µM): 92%
- residual activity ([5]; compound 10.0 µM): 96%
- residual activity ([7]; compound 1.0 µM): 95%
- residual activity ([7]; compound 10.0 µM): 100%
- residual activity ([8]; compound 1.0 µM): 106%
- residual activity ([8]; compound 10.0 µM): 101%
- residual activity ([26]; compound 1.0 µM): 187%
- residual activity ([26]; compound 10.0 µM): 191%
- residual activity ([10]; compound 1.0 µM): 101%
- residual activity ([10]; compound 10.0 µM): 105%
- residual activity ([11]; compound 1.0 µM): 107%
- residual activity ([11]; compound 10.0 µM): 115%
- residual activity ([13]; compound 1.0 µM): 117%
- residual activity ([13]; compound 10.0 µM): 106%
- residual activity ([14]; compound 1.0 µM): 131%
- residual activity ([14]; compound 10.0 µM): 111%
- residual activity ([27]; compound 1.0 µM): 101%
- residual activity ([27]; compound 10.0 µM): 102%
- residual activity ([15]; compound 1.0 µM): 73%
- residual activity ([15]; compound 10.0 µM): 81%
- residual activity ([16]; compound 1.0 µM): 115%
- residual activity ([16]; compound 10.0 µM): 113%
- residual activity ([17]; compound 1.0 µM): 120%
- residual activity ([17]; compound 10.0 µM): 121%
- residual activity ([18]; compound 1.0 µM): 136%
- residual activity ([18]; compound 10.0 µM): 137%
- residual activity ([19]; compound 1.0 µM): 114%
- residual activity ([19]; compound 10.0 µM): 133%
- residual activity ([20]; compound 1.0 µM): 100%
- residual activity ([20]; compound 10.0 µM): 114%
- residual activity ([21]; compound 1.0 µM): 125%
- residual activity ([21]; compound 10.0 µM): 131%
- residual activity ([24]; compound 1.0 µM): 93%
- residual activity ([24]; compound 10.0 µM): 87%
- residual activity ([25]; compound 1.0 µM): 107%
- residual activity ([25]; compound 10.0 µM): 98%

Structure (SMILES): COc1ccc2c(c1)c1c3c(c4c5ccccc5n(C)c4c1n2CC(O)CN(C)C)C(=O)NC3=O (centres undefined)
- residual activity ([2]; compound 0.1 µM): 63%
- residual activity ([2]; compound 1.0 µM): 13%
- residual activity ([2]; compound 10.0 µM): 4%
- residual activity ([3]; compound 0.1 µM): 11%
- residual activity ([3]; compound 1.0 µM): 2%
- residual activity ([3]; compound 10.0 µM): 1%
- residual activity ([4]; compound 0.1 µM): 105%
- residual activity ([4]; compound 1.0 µM): 83%
- residual activity ([4]; compound 10.0 µM): 71%
- residual activity ([5]; compound 0.1 µM): 94%
- residual activity ([5]; compound 1.0 µM): 80%
- residual activity ([5]; compound 10.0 µM): 62%
- residual activity ([7]; compound 0.1 µM): 80%
- residual activity ([7]; compound 1.0 µM): 44%
- residual activity ([7]; compound 10.0 µM): 13%
- residual activity ([8]; compound 0.1 µM): 77%
- residual activity ([8]; compound 1.0 µM): 17%
- residual activity ([8]; compound 10.0 µM): 11%
- residual activity ([26]; compound 0.1 µM): 82%
- residual activity ([26]; compound 1.0 µM): 27%
- residual activity ([26]; compound 10.0 µM): 16%
- residual activity ([10]; compound 0.1 µM): 89%
- residual activity ([10]; compound 1.0 µM): 65%
- residual activity ([10]; compound 10.0 µM): 37%
- residual activity ([11]; compound 0.1 µM): 95%
- residual activity ([11]; compound 1.0 µM): 80%
- residual activity ([11]; compound 10.0 µM): 59%
- residual activity ([13]; compound 0.1 µM): 118%
- residual activity ([13]; compound 1.0 µM): 115%
- residual activity ([13]; compound 10.0 µM): 112%
- residual activity ([14]; compound 0.1 µM): 119%
- residual activity ([14]; compound 1.0 µM): 102%
- residual activity ([14]; compound 10.0 µM): 95%
- residual activity ([27]; compound 0.1 µM): 90%
- residual activity ([27]; compound 1.0 µM): 97%
- residual activity ([27]; compound 10.0 µM): 87%
- residual activity ([15]; compound 0.1 µM): 99%
- residual activity ([15]; compound 1.0 µM): 87%
- residual activity ([15]; compound 10.0 µM): 84%
- residual activity ([16]; compound 0.1 µM): 38%
- residual activity ([16]; compound 1.0 µM): 6%
- residual activity ([16]; compound 10.0 µM): 1%
- residual activity ([17]; compound 0.1 µM): 2%
- residual activity ([17]; compound 1.0 µM): 1%
- residual activity ([17]; compound 10.0 µM): 1%
- residual activity ([18]; compound 0.1 µM): 92%
- residual activity ([18]; compound 1.0 µM): 57%
- residual activity ([18]; compound 10.0 µM): 24%
- residual activity ([19]; compound 0.1 µM): 67%
- residual activity ([19]; compound 1.0 µM): 20%
- residual activity ([19]; compound 10.0 µM): 5%
- residual activity ([20]; compound 0.1 µM): 70%
- residual activity ([20]; compound 1.0 µM): 34%
- residual activity ([20]; compound 10.0 µM): 8%
- residual activity ([21]; compound 0.1 µM): 103%
- residual activity ([21]; compound 1.0 µM): 75%
- residual activity ([21]; compound 10.0 µM): 41%
- residual activity ([24]; compound 0.1 µM): 15%
- residual activity ([24]; compound 1.0 µM): 6%
- residual activity ([24]; compound 10.0 µM): 3%
- residual activity ([25]; compound 0.1 µM): 113%
- residual activity ([25]; compound 1.0 µM): 89%
- residual activity ([25]; compound 10.0 µM): 77%

Structure (SMILES): Cn1nc(Nc2ccc(F)cc2)c2c(N)ncnc21
- residual activity ([2]; compound 1.0 µM): 103%
- residual activity ([2]; compound 10.0 µM): 109%
- residual activity ([3]; compound 1.0 µM): 114%
- residual activity ([3]; compound 10.0 µM): 114%
- residual activity ([4]; compound 1.0 µM): 91%
- residual activity ([4]; compound 10.0 µM): 96%
- residual activity ([5]; compound 1.0 µM): 95%
- residual activity ([5]; compound 10.0 µM): 92%
- residual activity ([7]; compound 1.0 µM): 103%
- residual activity ([7]; compound 10.0 µM): 103%
- residual activity ([8]; compound 1.0 µM): 113%
- residual activity ([8]; compound 10.0 µM): 119%
- residual activity ([26]; compound 1.0 µM): 108%
- residual activity ([26]; compound 10.0 µM): 104%
- residual activity ([10]; compound 1.0 µM): 104%
- residual activity ([10]; compound 10.0 µM): 109%
- residual activity ([11]; compound 1.0 µM): 102%
- residual activity ([11]; compound 10.0 µM): 100%
- residual activity ([13]; compound 1.0 µM): 117%
- residual activity ([13]; compound 10.0 µM): 113%
- residual activity ([14]; compound 1.0 µM): 132%
- residual activity ([14]; compound 10.0 µM): 127%
- residual activity ([27]; compound 1.0 µM): 104%
- residual activity ([27]; compound 10.0 µM): 104%
- residual activity ([15]; compound 1.0 µM): 95%
- residual activity ([15]; compound 10.0 µM): 95%
- residual activity ([16]; compound 1.0 µM): 100%
- residual activity ([16]; compound 10.0 µM): 109%
- residual activity ([17]; compound 1.0 µM): 101%
- residual activity ([17]; compound 10.0 µM): 95%
- residual activity ([18]; compound 1.0 µM): 119%
- residual activity ([18]; compound 10.0 µM): 101%
- residual activity ([19]; compound 1.0 µM): 119%
- residual activity ([19]; compound 10.0 µM): 125%
- residual activity ([20]; compound 1.0 µM): 124%
- residual activity ([20]; compound 10.0 µM): 106%
- residual activity ([21]; compound 1.0 µM): 112%
- residual activity ([21]; compound 10.0 µM): 81%
- residual activity ([24]; compound 1.0 µM): 94%
- residual activity ([24]; compound 10.0 µM): 107%
- residual activity ([25]; compound 1.0 µM): 137%
- residual activity ([25]; compound 10.0 µM): 129%

Source: the kinase profiling compilation of Christmann-Franck et al. (2016)
